{"source": "the kinase profiling compilation of Christmann-Franck et al. (2016)", "experiment_in_all_cases": "radiometric filter-binding kinase assay, Kinase HotSpot", "conditions_in_all_cases": "compound 0.5 µM; ATP 10 µM", "key": {"[1]": {"biological_target": "VRK1 (human) (UniProt Q99986)"}, "[2]": {"biological_target": "CHEK2 (human) (UniProt O96017)"}, "[3]": {"biological_target": "CLK1 (human) (UniProt P49759)"}, "[4]": {"biological_target": "CSF1R (human) (UniProt P07333)"}, "[5]": {"biological_target": "HCK (human) (UniProt P08631)"}, "[6]": {"biological_target": "TYRO3 (human) (UniProt Q06418)"}, "[7]": {"biological_target": "RET (human) (UniProt P07949)"}, "[8]": {"biological_target": "MERTK (human) (UniProt Q12866)"}, "[9]": {"biological_target": "MAP3K14 (human) (UniProt Q99558)"}, "[10]": {"biological_target": "DYRK2 (human) (UniProt Q92630)"}, "[11]": {"biological_target": "SRPK2 (human) (UniProt P78362)"}, "[12]": {"biological_target": "RPS6KA4 KD2 (human) (UniProt O75676)"}, "[13]": {"biological_target": "CAMK2D (human) (UniProt Q13557)", "sequence (Q13557 whole entry, looked up)": "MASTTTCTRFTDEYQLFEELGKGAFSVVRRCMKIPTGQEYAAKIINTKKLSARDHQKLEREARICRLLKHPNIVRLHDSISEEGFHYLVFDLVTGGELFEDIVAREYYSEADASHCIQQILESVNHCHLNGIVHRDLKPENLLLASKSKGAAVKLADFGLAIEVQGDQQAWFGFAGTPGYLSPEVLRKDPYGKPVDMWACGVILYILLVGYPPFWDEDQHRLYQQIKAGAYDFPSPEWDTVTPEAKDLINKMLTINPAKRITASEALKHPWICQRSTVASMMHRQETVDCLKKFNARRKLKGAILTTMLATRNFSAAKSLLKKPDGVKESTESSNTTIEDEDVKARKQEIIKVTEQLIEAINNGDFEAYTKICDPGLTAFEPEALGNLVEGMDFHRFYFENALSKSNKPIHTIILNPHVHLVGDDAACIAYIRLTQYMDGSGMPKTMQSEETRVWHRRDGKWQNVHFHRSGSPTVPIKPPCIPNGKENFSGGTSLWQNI"}, "[14]": {"biological_target": "EPHA2 (human) (UniProt P29317)"}, "[15]": {"biological_target": "RPS6KB1 (human) (UniProt P23443)", "sequence (P23443 whole entry, looked up)": "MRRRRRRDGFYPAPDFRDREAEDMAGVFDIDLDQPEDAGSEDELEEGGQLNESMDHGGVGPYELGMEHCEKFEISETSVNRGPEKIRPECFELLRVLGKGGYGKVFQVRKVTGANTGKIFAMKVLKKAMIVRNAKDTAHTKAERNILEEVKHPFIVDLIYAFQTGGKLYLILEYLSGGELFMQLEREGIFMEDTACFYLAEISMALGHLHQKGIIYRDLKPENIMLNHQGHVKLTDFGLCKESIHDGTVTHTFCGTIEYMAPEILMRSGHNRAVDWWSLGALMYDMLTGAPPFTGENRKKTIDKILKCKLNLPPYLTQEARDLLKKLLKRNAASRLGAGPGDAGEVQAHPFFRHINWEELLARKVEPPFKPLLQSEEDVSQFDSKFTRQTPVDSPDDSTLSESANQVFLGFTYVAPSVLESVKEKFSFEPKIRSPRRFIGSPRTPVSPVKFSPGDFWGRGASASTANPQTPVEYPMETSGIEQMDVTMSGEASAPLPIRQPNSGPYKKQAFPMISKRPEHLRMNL"}, "[16]": {"biological_target": "NEK6 (human) (UniProt Q9HC98)", "sequence (Q9HC98 whole entry, looked up)": "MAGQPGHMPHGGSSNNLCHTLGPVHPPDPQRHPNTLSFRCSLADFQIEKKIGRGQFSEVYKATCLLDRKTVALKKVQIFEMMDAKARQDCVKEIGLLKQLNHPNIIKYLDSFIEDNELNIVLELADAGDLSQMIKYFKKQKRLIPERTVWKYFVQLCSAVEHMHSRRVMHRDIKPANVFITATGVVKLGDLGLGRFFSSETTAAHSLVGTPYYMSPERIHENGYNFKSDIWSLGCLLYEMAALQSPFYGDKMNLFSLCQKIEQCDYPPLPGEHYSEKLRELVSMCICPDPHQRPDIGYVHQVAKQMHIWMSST"}, "[17]": {"biological_target": "BRSK1 (human) (UniProt Q8TDC3)", "sequence (Q8TDC3 whole entry, looked up)": "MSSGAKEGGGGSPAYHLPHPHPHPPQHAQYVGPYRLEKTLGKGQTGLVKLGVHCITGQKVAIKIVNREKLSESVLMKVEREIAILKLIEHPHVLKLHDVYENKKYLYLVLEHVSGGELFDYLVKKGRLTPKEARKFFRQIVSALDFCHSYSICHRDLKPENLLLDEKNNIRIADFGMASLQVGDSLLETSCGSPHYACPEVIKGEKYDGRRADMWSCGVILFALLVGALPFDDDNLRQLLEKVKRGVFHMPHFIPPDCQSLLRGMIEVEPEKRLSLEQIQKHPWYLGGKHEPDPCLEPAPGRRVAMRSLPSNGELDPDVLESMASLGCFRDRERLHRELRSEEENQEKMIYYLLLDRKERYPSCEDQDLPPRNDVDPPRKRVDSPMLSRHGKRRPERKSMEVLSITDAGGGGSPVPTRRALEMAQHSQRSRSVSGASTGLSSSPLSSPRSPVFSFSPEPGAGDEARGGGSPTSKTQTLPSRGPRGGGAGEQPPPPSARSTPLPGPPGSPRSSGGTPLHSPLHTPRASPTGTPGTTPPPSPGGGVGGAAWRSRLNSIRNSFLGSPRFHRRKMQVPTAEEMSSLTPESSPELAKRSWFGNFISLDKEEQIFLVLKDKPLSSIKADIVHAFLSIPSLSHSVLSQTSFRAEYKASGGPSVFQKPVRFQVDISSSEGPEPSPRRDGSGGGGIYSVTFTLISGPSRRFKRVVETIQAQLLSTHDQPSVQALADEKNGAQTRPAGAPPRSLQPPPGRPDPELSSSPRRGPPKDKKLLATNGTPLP"}, "[18]": {"biological_target": "MAP2K1 (human) (UniProt Q02750)", "sequence (Q02750 whole entry, looked up)": "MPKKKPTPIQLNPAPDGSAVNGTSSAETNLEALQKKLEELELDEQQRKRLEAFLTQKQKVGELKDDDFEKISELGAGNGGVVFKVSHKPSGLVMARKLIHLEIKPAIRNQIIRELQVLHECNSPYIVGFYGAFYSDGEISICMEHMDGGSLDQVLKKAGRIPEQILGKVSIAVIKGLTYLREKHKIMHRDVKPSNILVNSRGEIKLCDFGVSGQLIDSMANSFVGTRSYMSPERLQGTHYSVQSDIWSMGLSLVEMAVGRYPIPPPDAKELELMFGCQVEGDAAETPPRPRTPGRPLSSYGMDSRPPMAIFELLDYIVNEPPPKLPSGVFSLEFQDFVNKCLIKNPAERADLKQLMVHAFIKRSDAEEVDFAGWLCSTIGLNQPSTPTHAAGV"}, "[19]": {"biological_target": "MAP2K2 (human) (UniProt P36507)"}, "[20]": {"biological_target": "CDK6 CCND3 (human) (UniProt P30281+Q00534)"}, "[21]": {"biological_target": "CDK5 CDK5R1 p35 (human) (UniProt Q00535+Q15078)"}, "[22]": {"biological_target": "GSG2 (human) (UniProt Q8TF76)"}, "[23]": {"biological_target": "SRPK1 (human) (UniProt Q96SB4)"}, "[24]": {"biological_target": "NEK2 (human) (UniProt P51955)", "sequence (P51955 whole entry, looked up)": "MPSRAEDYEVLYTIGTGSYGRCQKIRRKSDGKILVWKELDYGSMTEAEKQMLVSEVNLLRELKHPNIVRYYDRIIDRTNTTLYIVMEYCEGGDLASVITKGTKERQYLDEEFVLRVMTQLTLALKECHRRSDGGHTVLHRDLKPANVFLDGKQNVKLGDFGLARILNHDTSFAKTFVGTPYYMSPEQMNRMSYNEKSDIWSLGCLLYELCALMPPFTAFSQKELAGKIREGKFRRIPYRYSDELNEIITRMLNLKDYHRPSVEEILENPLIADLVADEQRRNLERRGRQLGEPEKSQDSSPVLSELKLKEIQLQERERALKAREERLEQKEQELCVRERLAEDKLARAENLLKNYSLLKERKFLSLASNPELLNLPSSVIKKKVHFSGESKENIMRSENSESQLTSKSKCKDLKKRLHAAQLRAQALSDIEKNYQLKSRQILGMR"}, "[25]": {"biological_target": "RAF1 (human) (UniProt P04049)"}, "[26]": {"biological_target": "DYRK1A (human) (UniProt Q13627)"}, "[27]": {"biological_target": "FLT3 (human) (UniProt P36888)"}, "[28]": {"biological_target": "CSNK1A1 (human) (UniProt P48729)"}, "[29]": {"biological_target": "TGFBR2 (human) (UniProt P37173)"}, "[30]": {"biological_target": "DYRK3 (human) (UniProt O43781)"}, "[31]": {"biological_target": "SRMS (human) (UniProt Q9H3Y6)"}, "[32]": {"biological_target": "PRKD2 (human) (UniProt Q9BZL6)", "sequence (Q9BZL6 whole entry, looked up)": "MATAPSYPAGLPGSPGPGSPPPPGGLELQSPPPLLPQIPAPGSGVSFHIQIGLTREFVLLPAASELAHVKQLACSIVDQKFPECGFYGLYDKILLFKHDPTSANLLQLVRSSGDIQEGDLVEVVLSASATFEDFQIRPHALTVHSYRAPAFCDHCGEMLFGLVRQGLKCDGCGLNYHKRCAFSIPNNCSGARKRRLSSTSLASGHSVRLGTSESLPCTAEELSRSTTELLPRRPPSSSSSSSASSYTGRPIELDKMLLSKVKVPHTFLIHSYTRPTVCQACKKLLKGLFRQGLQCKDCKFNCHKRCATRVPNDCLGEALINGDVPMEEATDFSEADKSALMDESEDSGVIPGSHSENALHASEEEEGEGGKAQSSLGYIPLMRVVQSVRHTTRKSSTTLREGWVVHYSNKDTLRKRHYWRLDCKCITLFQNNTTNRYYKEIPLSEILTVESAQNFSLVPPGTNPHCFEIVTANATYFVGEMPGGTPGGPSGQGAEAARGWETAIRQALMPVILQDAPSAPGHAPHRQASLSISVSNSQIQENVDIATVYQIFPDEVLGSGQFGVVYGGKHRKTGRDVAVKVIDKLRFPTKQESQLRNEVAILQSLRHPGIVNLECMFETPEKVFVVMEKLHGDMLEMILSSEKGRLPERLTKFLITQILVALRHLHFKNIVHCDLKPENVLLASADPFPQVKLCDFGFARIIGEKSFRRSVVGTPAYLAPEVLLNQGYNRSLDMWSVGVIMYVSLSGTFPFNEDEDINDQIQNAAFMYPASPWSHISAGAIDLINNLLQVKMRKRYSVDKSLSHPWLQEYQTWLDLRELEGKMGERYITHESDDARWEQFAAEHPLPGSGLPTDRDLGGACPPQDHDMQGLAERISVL"}, "[33]": {"biological_target": "PLK3 (human) (UniProt Q9H4B4)"}, "[34]": {"biological_target": "EPHB3 (human) (UniProt P54753)"}, "[35]": {"biological_target": "FRK (human) (UniProt P42685)"}, "[36]": {"biological_target": "TEC (human) (UniProt P42680)"}, "[37]": {"biological_target": "BRSK2 (human) (UniProt Q8IWQ3)"}, "[38]": {"biological_target": "RPS6KA6 KD1 KD2 (human) (UniProt Q9UK32)"}, "[39]": {"biological_target": "DYRK1B (human) (UniProt Q9Y463)", "sequence (Q9Y463 whole entry, looked up)": "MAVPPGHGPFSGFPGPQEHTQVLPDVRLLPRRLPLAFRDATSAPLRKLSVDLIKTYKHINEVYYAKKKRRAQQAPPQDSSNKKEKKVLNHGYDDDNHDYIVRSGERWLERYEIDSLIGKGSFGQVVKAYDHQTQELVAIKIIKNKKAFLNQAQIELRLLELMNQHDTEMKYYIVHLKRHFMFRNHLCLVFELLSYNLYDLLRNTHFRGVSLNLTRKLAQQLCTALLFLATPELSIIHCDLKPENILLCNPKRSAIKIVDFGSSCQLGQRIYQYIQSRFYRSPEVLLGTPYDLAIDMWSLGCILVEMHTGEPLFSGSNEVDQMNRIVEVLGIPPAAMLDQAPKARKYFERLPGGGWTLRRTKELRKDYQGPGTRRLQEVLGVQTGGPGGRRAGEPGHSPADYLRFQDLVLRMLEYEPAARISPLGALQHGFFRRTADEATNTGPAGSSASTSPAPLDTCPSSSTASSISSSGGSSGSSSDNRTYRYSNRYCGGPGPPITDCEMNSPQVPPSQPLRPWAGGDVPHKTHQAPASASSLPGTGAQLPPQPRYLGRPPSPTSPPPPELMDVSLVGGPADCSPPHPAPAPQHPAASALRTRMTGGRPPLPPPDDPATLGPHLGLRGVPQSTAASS"}, "[40]": {"biological_target": "ACVR1B (human) (UniProt P36896)", "sequence (P36896 whole entry, looked up)": "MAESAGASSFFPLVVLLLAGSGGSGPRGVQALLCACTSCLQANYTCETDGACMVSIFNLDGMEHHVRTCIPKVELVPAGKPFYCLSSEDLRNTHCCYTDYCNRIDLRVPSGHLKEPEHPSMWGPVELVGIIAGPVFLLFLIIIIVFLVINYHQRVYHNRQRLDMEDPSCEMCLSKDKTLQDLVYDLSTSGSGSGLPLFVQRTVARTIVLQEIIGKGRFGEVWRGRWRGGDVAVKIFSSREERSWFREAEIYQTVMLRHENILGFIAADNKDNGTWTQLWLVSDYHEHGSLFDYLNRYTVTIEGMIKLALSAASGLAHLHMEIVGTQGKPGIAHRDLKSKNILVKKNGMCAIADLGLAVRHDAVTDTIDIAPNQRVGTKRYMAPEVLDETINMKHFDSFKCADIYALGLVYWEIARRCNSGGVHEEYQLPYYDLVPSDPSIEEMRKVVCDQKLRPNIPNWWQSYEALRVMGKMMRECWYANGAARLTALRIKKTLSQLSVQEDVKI"}, "[41]": {"biological_target": "CSNK1G2 (human) (UniProt P78368)"}, "[42]": {"biological_target": "FGFR1 (human) (UniProt P11362)"}}}
{"smiles": "Nc1nc(Nc2ccc(S(N)(=O)=O)cc2)nn1C(=O)c1c(F)cccc1F", "values": [{"measurement": "residual activity", "setting": "[1]", "value": 90.4, "unit": "%"}, {"measurement": "residual activity", "setting": "[2]", "value": 63.6, "unit": "%"}, {"measurement": "residual activity", "setting": "[3]", "value": 85.1, "unit": "%"}, {"measurement": "residual activity", "setting": "[4]", "value": 49.2, "unit": "%"}, {"measurement": "residual activity", "setting": "[5]", "value": 86.2, "unit": "%"}, {"measurement": "residual activity", "setting": "[6]", "value": 98.6, "unit": "%"}, {"measurement": "residual activity", "setting": "[7]", "value": 54.1, "unit": "%"}, {"measurement": "residual activity", "setting": "[8]", "value": 70.2, "unit": "%"}, {"measurement": "residual activity", "setting": "[9]", "value": 106, "unit": "%"}, {"measurement": "residual activity", "setting": "[10]", "value": 112, "unit": "%"}, {"measurement": "residual activity", "setting": "[11]", "value": 54.9, "unit": "%"}, {"measurement": "residual activity", "setting": "[12]", "value": 90.2, "unit": "%"}, {"measurement": "residual activity", "setting": "[13]", "value": 94.6, "unit": "%"}, {"measurement": "residual activity", "setting": "[14]", "value": 80.9, "unit": "%"}, {"measurement": "residual activity", "setting": "[15]", "value": 92.1, "unit": "%"}, {"measurement": "residual activity", "setting": "[16]", "value": 102, "unit": "%"}, {"measurement": "residual activity", "setting": "[17]", "value": 49.2, "unit": "%"}, {"measurement": "residual activity", "setting": "[18]", "value": 93.9, "unit": "%"}, {"measurement": "residual activity", "setting": "[19]", "value": 85.6, "unit": "%"}, {"measurement": "residual activity", "setting": "[20]", "value": 36.3, "unit": "%"}, {"measurement": "residual activity", "setting": "[21]", "value": 0.212, "unit": "%"}, {"measurement": "residual activity", "setting": "[22]", "value": 107, "unit": "%"}, {"measurement": "residual activity", "setting": "[23]", "value": 86.4, "unit": "%"}, {"measurement": "residual activity", "setting": "[24]", "value": 94.8, "unit": "%"}, {"measurement": "residual activity", "setting": "[25]", "value": 95.7, "unit": "%"}, {"measurement": "residual activity", "setting": "[26]", "value": 101, "unit": "%"}, {"measurement": "residual activity", "setting": "[27]", "value": 44.3, "unit": "%"}, {"measurement": "residual activity", "setting": "[28]", "value": 95.1, "unit": "%"}, {"measurement": "residual activity", "setting": "[29]", "value": 98.5, "unit": "%"}, {"measurement": "residual activity", "setting": "[30]", "value": 101, "unit": "%"}, {"measurement": "residual activity", "setting": "[31]", "value": 96.5, "unit": "%"}, {"measurement": "residual activity", "setting": "[32]", "value": 86, "unit": "%"}, {"measurement": "residual activity", "setting": "[33]", "value": 91.3, "unit": "%"}, {"measurement": "residual activity", "setting": "[34]", "value": 98.5, "unit": "%"}, {"measurement": "residual activity", "setting": "[35]", "value": 90.9, "unit": "%"}, {"measurement": "residual activity", "setting": "[36]", "value": 122, "unit": "%"}, {"measurement": "residual activity", "setting": "[37]", "value": 49, "unit": "%"}, {"measurement": "residual activity", "setting": "[38]", "value": 24.7, "unit": "%"}, {"measurement": "residual activity", "setting": "[39]", "value": 87.6, "unit": "%"}, {"measurement": "residual activity", "setting": "[40]", "value": 118, "unit": "%"}]}
{"smiles": "Nc1nc(Nc2ccc(S(N)(=O)=O)cc2)nn1C(=S)Nc1c(F)cccc1F", "values": [{"measurement": "residual activity", "setting": "[1]", "value": 94.6, "unit": "%"}, {"measurement": "residual activity", "setting": "[2]", "value": 1.96, "unit": "%"}, {"measurement": "residual activity", "setting": "[3]", "value": 2.26, "unit": "%"}, {"measurement": "residual activity", "setting": "[4]", "value": 10.6, "unit": "%"}, {"measurement": "residual activity", "setting": "[5]", "value": 37.9, "unit": "%"}, {"measurement": "residual activity", "setting": "[6]", "value": 29.8, "unit": "%"}, {"measurement": "residual activity", "setting": "[7]", "value": 3.09, "unit": "%"}, {"measurement": "residual activity", "setting": "[41]", "value": 14.8, "unit": "%"}, {"measurement": "residual activity", "setting": "[42]", "value": 6.59, "unit": "%"}, {"measurement": "residual activity", "setting": "[8]", "value": 14.8, "unit": "%"}, {"measurement": "residual activity", "setting": "[9]", "value": 29.1, "unit": "%"}, {"measurement": "residual activity", "setting": "[10]", "value": 60.4, "unit": "%"}, {"measurement": "residual activity", "setting": "[11]", "value": 17.1, "unit": "%"}, {"measurement": "residual activity", "setting": "[12]", "value": 42.8, "unit": "%"}, {"measurement": "residual activity", "setting": "[13]", "value": 15.6, "unit": "%"}, {"measurement": "residual activity", "setting": "[14]", "value": 29.9, "unit": "%"}, {"measurement": "residual activity", "setting": "[15]", "value": 30, "unit": "%"}, {"measurement": "residual activity", "setting": "[16]", "value": 78.8, "unit": "%"}, {"measurement": "residual activity", "setting": "[17]", "value": 2.61, "unit": "%"}, {"measurement": "residual activity", "setting": "[18]", "value": 94.6, "unit": "%"}, {"measurement": "residual activity", "setting": "[19]", "value": 96.6, "unit": "%"}, {"measurement": "residual activity", "setting": "[20]", "value": 7.69, "unit": "%"}, {"measurement": "residual activity", "setting": "[21]", "value": 11.3, "unit": "%"}, {"measurement": "residual activity", "setting": "[22]", "value": 85.3, "unit": "%"}, {"measurement": "residual activity", "setting": "[23]", "value": 25.9, "unit": "%"}, {"measurement": "residual activity", "setting": "[24]", "value": 98.3, "unit": "%"}, {"measurement": "residual activity", "setting": "[25]", "value": 110, "unit": "%"}, {"measurement": "residual activity", "setting": "[26]", "value": 15.3, "unit": "%"}, {"measurement": "residual activity", "setting": "[27]", "value": 1.07, "unit": "%"}, {"measurement": "residual activity", "setting": "[29]", "value": 89.3, "unit": "%"}, {"measurement": "residual activity", "setting": "[30]", "value": 98.5, "unit": "%"}, {"measurement": "residual activity", "setting": "[31]", "value": 94, "unit": "%"}, {"measurement": "residual activity", "setting": "[32]", "value": 9.05, "unit": "%"}, {"measurement": "residual activity", "setting": "[33]", "value": 92.2, "unit": "%"}, {"measurement": "residual activity", "setting": "[34]", "value": 90.4, "unit": "%"}, {"measurement": "residual activity", "setting": "[35]", "value": 70.6, "unit": "%"}, {"measurement": "residual activity", "setting": "[36]", "value": 106, "unit": "%"}, {"measurement": "residual activity", "setting": "[37]", "value": 9.03, "unit": "%"}, {"measurement": "residual activity", "setting": "[38]", "value": 2.42, "unit": "%"}, {"measurement": "residual activity", "setting": "[39]", "value": 14.1, "unit": "%"}, {"measurement": "residual activity", "setting": "[40]", "value": 92.2, "unit": "%"}]}
